The source made the active and inactive calls. No cut-off for these calls is given here.
Key:
[1] = biological target: Dual specificity tyrosine-phosphorylation-regulated kinase 1A (Homo sapiens) (UniProt Q13627); experiment: Binding affinity to recombinant DYRK1 (unknown origin) assessed as change in melting temperature 10 uM by differential scanning fluorimetry
[2] = biological target: T1, Dual specificity tyrosine-phosphorylation-regulated kinase 2 (Homo sapiens) (UniProt Q92630); experiment: Binding affinity to recombinant DYRK2 (unknown origin) assessed as change in melting temperature 10 uM by differential scanning fluorimetry
T1 sequence (whole entry): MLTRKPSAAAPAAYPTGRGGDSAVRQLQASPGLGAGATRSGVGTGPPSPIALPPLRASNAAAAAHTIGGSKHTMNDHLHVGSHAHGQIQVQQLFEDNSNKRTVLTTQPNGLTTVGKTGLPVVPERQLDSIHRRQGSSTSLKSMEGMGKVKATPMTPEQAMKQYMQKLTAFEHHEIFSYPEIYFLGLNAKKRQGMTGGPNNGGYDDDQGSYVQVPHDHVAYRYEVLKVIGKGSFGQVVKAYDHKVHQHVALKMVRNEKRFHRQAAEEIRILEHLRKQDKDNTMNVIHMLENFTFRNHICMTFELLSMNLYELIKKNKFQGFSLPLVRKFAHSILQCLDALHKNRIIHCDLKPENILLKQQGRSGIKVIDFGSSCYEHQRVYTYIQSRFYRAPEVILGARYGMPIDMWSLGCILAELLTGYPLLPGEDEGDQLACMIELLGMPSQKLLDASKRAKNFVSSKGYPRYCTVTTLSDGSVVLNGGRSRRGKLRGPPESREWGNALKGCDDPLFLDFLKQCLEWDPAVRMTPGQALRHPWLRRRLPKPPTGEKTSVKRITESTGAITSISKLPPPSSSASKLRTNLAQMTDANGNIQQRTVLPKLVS

[3] = biological target: BMP-2-inducible protein kinase (Homo sapiens) (UniProt Q9NSY1); experiment: Binding affinity to recombinant BMP2K (unknown origin) assessed as change in melting temperature 10 uM by differential scanning fluorimetry
[4] = biological target: T2, Serine/threonine-protein kinase 17A (Homo sapiens) (UniProt Q9UEE5); experiment: Binding affinity to recombinant STK17A (unknown origin) assessed as change in melting temperature 10 uM by differential scanning fluorimetry
T2 sequence (whole entry): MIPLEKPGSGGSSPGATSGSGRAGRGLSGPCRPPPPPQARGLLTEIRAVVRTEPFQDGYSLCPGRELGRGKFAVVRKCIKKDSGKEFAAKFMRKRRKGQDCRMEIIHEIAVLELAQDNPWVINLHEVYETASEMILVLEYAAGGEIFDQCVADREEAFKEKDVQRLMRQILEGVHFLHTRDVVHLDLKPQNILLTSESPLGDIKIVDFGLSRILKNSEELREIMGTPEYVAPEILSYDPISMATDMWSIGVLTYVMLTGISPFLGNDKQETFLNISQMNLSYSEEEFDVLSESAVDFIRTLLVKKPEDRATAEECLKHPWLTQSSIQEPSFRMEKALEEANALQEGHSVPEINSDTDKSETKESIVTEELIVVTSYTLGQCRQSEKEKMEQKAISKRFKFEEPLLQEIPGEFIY

[5] = biological target: T3, Serine/threonine-protein kinase 17B (Homo sapiens) (UniProt O94768); experiment: Binding affinity to recombinant […] (unknown origin) assessed as change in melting temperature 10 uM by differential scanning fluorimetry
T3 sequence (whole entry): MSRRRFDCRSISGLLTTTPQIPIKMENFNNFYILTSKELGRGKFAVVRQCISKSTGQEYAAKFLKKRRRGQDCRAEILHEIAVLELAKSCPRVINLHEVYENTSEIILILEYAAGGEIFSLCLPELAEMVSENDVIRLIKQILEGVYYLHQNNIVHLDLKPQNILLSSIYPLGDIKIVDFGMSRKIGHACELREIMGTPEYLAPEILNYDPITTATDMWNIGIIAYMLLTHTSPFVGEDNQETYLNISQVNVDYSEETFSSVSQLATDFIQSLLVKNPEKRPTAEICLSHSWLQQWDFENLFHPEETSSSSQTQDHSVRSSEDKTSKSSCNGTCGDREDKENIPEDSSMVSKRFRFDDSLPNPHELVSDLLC

BaF3 [6] = experiment: cells; format: functional, cell-based; settings: Mus musculus, BaF3, 72 h
[7] = biological target: T4, Mitogen-activated protein kinase 1 and 3 (ERK2 and ERK1) (Mus musculus) (UniProt P63085+Q63844); experiment: Inhibition of ERK1/2 phosphorylation in mouse BaF3 cells harboring Del19 mutant assessed as ERK1/2 phosphorylation at 10 to 1000 nM incubated for 8 hrs by Western blot analysis; format: cell-based; settings: dose 10-1000 nM
[8] = biological target: T4, Mitogen-activated protein kinase 1 and 3 (ERK2 and ERK1) (Mus musculus); format: cell-based; settings: BaF3, dose 10-1000 nM, time 8.0 hrs
[9] = biological target: RAC-alpha serine/threonine-protein kinase (Mus musculus) (UniProt P31750); experiment: Inhibition of AKT phosphorylation in mouse BaF3 cells harboring L858R mutant assessed as […] phosphorylation at 10 to 1000 nM incubated for 8 hrs by Western blot analysis; format: cell-based; settings: dose 10-1000 nM
[10] = biological target: RAC-alpha serine/threonine-protein kinase (Mus musculus) (UniProt P31750); experiment: Inhibition of AKT phosphorylation in mouse BaF3 cells harboring Del19 mutant assessed as […] phosphorylation at 10 to 1000 nM incubated for 8 hrs by Western blot analysis; format: cell-based; settings: dose 10-1000 nM
[11] = biological target: RAC-alpha serine/threonine-protein kinase (Mus musculus) (UniProt P31750); format: cell-based; settings: BaF3, dose 10-1000 nM, time 8.0 hrs
BaF3 [12] = experiment: cells; settings: Mus musculus, BaF3, 72 h
Description: Antiproliferative activity against mouse BaF3 cells expressing EGFR WT assessed as cell viability measured after 72 hrs hrs by CellTiter Glo assay

BaF3 [13] = experiment: cells; settings: Mus musculus, BaF3, 72 h; remark: listed apart in the source

Sequence of RAC-alpha serine/threonine-protein kinase (Mus musculus) (P31750 whole entry): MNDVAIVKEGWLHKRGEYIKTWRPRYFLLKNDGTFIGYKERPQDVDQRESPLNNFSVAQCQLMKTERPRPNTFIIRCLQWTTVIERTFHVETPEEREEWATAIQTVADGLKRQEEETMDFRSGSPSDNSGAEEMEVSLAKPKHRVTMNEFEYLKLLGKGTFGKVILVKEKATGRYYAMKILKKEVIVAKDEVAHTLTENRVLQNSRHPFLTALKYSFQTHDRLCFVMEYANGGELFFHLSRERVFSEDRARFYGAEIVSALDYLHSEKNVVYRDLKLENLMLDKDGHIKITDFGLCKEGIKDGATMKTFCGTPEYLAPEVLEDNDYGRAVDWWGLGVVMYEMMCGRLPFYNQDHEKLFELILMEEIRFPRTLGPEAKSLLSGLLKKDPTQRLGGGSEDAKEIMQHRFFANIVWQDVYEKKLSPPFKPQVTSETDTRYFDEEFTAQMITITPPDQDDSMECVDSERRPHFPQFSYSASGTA
T4 sequence (P63085 whole entry, looked up): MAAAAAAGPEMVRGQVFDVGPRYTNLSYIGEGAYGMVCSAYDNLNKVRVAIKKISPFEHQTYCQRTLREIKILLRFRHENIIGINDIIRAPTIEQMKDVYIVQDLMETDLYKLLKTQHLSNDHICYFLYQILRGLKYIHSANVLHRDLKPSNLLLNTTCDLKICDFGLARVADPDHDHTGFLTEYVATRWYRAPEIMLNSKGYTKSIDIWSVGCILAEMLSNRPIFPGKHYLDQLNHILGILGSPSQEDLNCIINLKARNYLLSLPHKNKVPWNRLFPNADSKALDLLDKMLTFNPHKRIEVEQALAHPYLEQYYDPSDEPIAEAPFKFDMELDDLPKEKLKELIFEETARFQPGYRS
T4 sequence (Q63844 whole entry, looked up): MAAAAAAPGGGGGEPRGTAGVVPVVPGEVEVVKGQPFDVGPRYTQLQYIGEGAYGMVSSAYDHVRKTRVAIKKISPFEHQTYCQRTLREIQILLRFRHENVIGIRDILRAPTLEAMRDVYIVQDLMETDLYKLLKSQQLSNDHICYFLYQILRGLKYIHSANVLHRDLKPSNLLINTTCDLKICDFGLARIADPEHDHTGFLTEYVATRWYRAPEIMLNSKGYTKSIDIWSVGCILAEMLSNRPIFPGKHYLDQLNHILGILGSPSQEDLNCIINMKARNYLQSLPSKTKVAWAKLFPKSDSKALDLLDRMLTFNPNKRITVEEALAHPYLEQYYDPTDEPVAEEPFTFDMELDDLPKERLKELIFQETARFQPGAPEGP
Sequence of BMP-2-inducible protein kinase (Homo sapiens) (Q9NSY1 whole entry, looked up): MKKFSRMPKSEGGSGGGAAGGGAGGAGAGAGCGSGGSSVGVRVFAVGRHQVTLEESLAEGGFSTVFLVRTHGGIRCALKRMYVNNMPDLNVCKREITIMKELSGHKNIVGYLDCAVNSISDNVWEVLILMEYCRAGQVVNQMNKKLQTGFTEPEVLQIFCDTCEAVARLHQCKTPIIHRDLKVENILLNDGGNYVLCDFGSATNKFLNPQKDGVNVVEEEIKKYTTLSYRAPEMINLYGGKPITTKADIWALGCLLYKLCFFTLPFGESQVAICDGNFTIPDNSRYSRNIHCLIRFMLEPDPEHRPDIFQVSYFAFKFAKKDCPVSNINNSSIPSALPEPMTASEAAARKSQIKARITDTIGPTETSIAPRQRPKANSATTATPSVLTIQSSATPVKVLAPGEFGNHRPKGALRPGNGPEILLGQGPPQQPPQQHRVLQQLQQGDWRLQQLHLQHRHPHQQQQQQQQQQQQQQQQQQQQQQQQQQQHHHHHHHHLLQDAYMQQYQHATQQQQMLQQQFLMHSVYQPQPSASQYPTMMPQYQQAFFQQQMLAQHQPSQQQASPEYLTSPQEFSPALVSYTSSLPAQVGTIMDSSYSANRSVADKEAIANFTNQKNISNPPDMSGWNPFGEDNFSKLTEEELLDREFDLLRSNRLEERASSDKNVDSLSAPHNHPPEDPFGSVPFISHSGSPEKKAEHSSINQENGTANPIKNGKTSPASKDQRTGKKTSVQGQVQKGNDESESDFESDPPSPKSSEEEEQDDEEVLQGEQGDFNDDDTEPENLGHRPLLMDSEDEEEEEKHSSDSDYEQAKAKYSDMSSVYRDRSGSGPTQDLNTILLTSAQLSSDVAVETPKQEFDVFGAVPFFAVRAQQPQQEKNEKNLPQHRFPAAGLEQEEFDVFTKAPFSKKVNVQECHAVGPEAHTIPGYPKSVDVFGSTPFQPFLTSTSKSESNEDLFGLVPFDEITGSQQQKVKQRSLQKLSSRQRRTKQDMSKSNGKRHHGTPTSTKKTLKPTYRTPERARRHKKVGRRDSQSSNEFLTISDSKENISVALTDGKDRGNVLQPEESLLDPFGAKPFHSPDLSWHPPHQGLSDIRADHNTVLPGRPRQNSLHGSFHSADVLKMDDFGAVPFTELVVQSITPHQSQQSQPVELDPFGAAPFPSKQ

COc1cc2ncnc(Nc3cc(Cl)c(F)cc3O)c2cc1O
ΔTm [1]: > 3 °C
ΔTm [2]: > 3 °C
ΔTm [3]: > 3 °C
ΔTm [4]: > 3 °C
ΔTm [5]: > 3 °C
IC50 (BaF3 [6]): 120 nM
inhibition [7]: Active
inhibition [8]: Active
inhibition [9]: Active
inhibition [10]: Active
inhibition [11]: Active
IC50 (BaF3 [12]): 206 nM
IC50 (BaF3 [13]): 93.1 nM

Source: ChEMBL document CHEMBL5150044, “Macrocyclization of Quinazoline-Based EGFR Inhibitors Leads to Exclusive Mutant Selectivity for EGFR L858R and Del19” (J Med Chem, 2022)
